Results as given in US20240376052A1, “N-SUBSTITUTED INDOLE DERIVATIVES AS SEROTONERGIC AGENTS USEFUL FOR THE TREATMENT OF DISORDERS RELATED THERETO” (Mindset Pharma Inc., priority 2021, published 2024).
Like-named read-outs stand apart in the source and are kept apart here.

What was measured:
[1] = molecular target: human 5-HT2A receptor (Homo sapiens (Human), UniProt P28223); assay: Human 5-HT2A radioligand binding assay ([3H]-ketanserin)
[2] = Liver microsomes stability, dog; details: for Remaining Percentage (%): Dog
[3] = Liver microsomes stability, human; details: for Remaining Percentage (%): Human
Description: (§1) The objective of this study was to estimate in vitro metabolic stability of representative compounds of the application in pooled human and male mouse liver microsomes. The concentrations of parent compounds in reaction systems were evaluated by LC-MS/MS for estimating the stability in pooled human and male mouse liver microsomes. The in vitro intrinsic clearances of test compounds were determined as well.
(§2) A master solution in the “Incubation Plate” containing phosphate buffer, ultra-pure H2O, MgCl2 solution and liver microsomes was made according to Table 3. The mixture was pre-warmed at 37° C. water bath for 5 minutes.
(§3) 40 μL of 10 mM NADPH solution was added to each well. The final concentration of NADPH was 1 mM. The negative control samples were prepared by replacing NADPH with 40 μL of ultra-pure H2O. Samples were prepared in duplicate. Negative controls were prepared in singlet.
(§4) The reaction was started with the addition of 4 μL of 200 μM test compounds or control compounds to each master solution to get the final concentration of 2 μM. This study was performed in duplicate.
(§5) Aliquots of 50 μL were taken from the reaction solution at 0, 15, 30, 45 and 60 minutes. The reaction solutions were stopped by the addition of 4 volumes of cold methanol with IS (100 nM alprazolam, 200 nM imipramine, 200 nM labetalol and 2 μM ketoprofen). Samples were centrifuged at 3,220 g for 40 minutes. Aliquot of 90 μL of the supernatant was mixed with 90 μL of ultra-pure H2O and then was used for LC-MS/MS analysis.
(§6) LC/MS analysis was performed for all samples from this study using a Shimadzu liquid chromatograph separation system equipped with degasser DGU-20A5R; solvent delivery unit LC-30AD; system controller SIL-30AC; column oven CTO-30A; CTC Analytics HTC PAL System. Mass spectrometric analysis was performed using an Triple Quad™ 5500 instrument.
(§7) All calculations were carried out using Microsoft Excel. Peak area ratios of test compound to internal standard (listed in the below table) were determined from extracted ion chromatograms.
(§8) All calculations were carried out using Microsoft Excel. Peak areas were determined from extracted ion chromatograms. The slope value, k, was determined by linear regression of the natural logarithm of the remaining percentage of the parent drug vs. incubation time curve.
(§9) The in vitro half-life (in vitro t1/2) was determined from the slope value:
(§10) Conversion of the in vitro t1/2(min) into the in vitro intrinsic clearance (in vitro CLint, in μL/min/mg proteins) was done using the following equation (mean of duplicate determinations): […]

[4] = Liver microsomes stability, mouse; details: for Remaining Percentage (%): Mouse
Description: as §1, §2, §3, §4, §5, §6, §7, §8, §9, §10

[5] = Liver microsomes stability, rat; details: for Remaining Percentage (%): Rat
Description: as §1, §2, §3, §4, §5, §6, §7, §8, §9, §10

[6] = tested on: C57BL/6J mice; assay: Mouse head twitch; format: in vivo; details: mice pretreated with M100907 prior to I-1
Description: The effect of different doses of representative compounds of Formula I were evaluated on head-twitch response (HTR) and other behavioural responses indicative of serotonin syndrome as behavior-based models of psychedelic activity.
Male, C57BL/6J mice (body weight range 20-30 g) were dosed with the appropriate dose of test article, and following a 1-minute pre-treatment time, placed in individual observation chambers. Animals were visually assessed for the incidence head twitches continuously over a 1 hr period. Head twitches were defined as a rapid jerk of the head which was not elicited by an external tactile stimulus (Come and Pickering, Psychopharmacologia, 1967, 11(1): 65-78). Each head twitch was individually counted by a trained observer, and the data expressed as the mean+SEM of 6-10 mice per group. Mice were used in a single experiment only.

[7] = [3H]-ketanserin competition, read-out: h5-HT2A IC50

CCCCC/C=C\C/C=C\CCCCCCCC(=O)n1cc(C2CCN(C)C2)c2ccccc21 (racemic) [Compound I-12, (9Z,12Z)-1-(3-(1-Methylpyrrolidin-3-yl)-1H-indol-1-yl)octadeca-9,12-dien-1-one]
IC50 [1, 7]: 2000 to 5000 nM

[2H]C([2H])([2H])N(C([2H])([2H])[2H])C([2H])([2H])C([2H])([2H])c1cn(C(=O)CCCCCCC/C=C\C/C=C\CCCCC)c2cccc(F)c12 [Compound I-9, (9Z,12Z)-1-(3-(2-(Bis(methyl-d3)amino)ethyl-1,1,2,2-d4)-4-fluoro-1H-indol-1-yl)octadeca-9,12-dien-1-one]
IC50 [1]: 2000 to 5000 nM

CCCCC/C=C\C/C=C\CCCCCCCC(=O)n1cc(CCN(C)C)c2ccccc21 [Compound I-8, (9Z,12Z)-1-(3-(2-(Dimethylamino)ethyl)-1H-indol-1-yl)octadeca-9,12-dien-1-one]
Predicted hepatic CL ([2]; Dog liver microsomes): 18.69 mL/min/kg
Remaining Percentage (%) ([2]; With NADPH, 0 min): 100.00%
Remaining Percentage (%) ([2]; With NADPH, 30 min): 66.41%
Remaining Percentage (%) ([2]; With NADPH, 60 min): 56.62%
Remaining Percentage (%) ([2]; Without NADPH, 0 min): 100.00%
Remaining Percentage (%) ([2]; Without NADPH, 30 min): 84.36%
Remaining Percentage (%) ([2]; Without NADPH, 60 min): 92.44%
CLint scaled at 2 μM ([2]; dog, microsomes): 47.3 mL/min/kg
half-life at 2 μM ([2]; dog, microsomes): 73.1 min
microsomal CLint at 2 μM ([2]; dog, microsomes): 19 µL/min/mg
Predicted hepatic CL ([3]; Human liver microsomes): 2.16 mL/min/kg
Remaining Percentage (%) ([3]; With NADPH, 0 min): 100.00%
Remaining Percentage (%) ([3]; With NADPH, 30 min): 91.39%
Remaining Percentage (%) ([3]; With NADPH, 60 min): 94.38%
Remaining Percentage (%) ([3]; Without NADPH, 0 min): 100.00%
Remaining Percentage (%) ([3]; Without NADPH, 30 min): 91.04%
Remaining Percentage (%) ([3]; Without NADPH, 60 min): 100.94%
CLint scaled at 2 μM ([3]; human, microsomes): 2.42 mL/min/kg
half-life at 2 μM ([3]; human, microsomes): 719 min
microsomal CLint at 2 μM ([3]; human, microsomes): 1.93 µL/min/mg
IC50 [1, 7]: < 2000 nM
Predicted hepatic CL ([4]; Mouse liver microsomes): 6.52 mL/min/kg
Remaining Percentage (%) ([4]; With NADPH, 0 min): 100.00%
Remaining Percentage (%) ([4]; With NADPH, 30 min): 105.41%
Remaining Percentage (%) ([4]; With NADPH, 60 min): 95.29%
Remaining Percentage (%) ([4]; Without NADPH, 0 min): 100.00%
Remaining Percentage (%) ([4]; Without NADPH, 30 min): 87.39%
Remaining Percentage (%) ([4]; Without NADPH, 60 min): 85.47%
CLint scaled at 2 μM ([4]; male, mouse, microsomes): 7.03 mL/min/kg
half-life at 2 μM ([4]; male, mouse, microsomes): 862 min
microsomal CLint at 2 μM ([4]; male, mouse, microsomes): 1.61 µL/min/mg
Predicted hepatic CL ([5]; Rat liver microsomes): 12.94 mL/min/kg
Remaining Percentage (%) ([5]; With NADPH, 0 min): 100.00%
Remaining Percentage (%) ([5]; With NADPH, 30 min): 91.29%
Remaining Percentage (%) ([5]; With NADPH, 60 min): 75.35%
Remaining Percentage (%) ([5]; Without NADPH, 0 min): 100.00%
Remaining Percentage (%) ([5]; Without NADPH, 30 min): 107.31%
Remaining Percentage (%) ([5]; Without NADPH, 60 min): 109.93%
CLint scaled at 2 μM ([5]; rat, microsomes): 16.9 mL/min/kg
half-life at 2 μM ([5]; rat, microsomes): 147 min
microsomal CLint at 2 μM ([5]; rat, microsomes): 9.44 µL/min/mg

COc1cccc([C@H](O)C2CCN(CCc3ccc(F)cc3)CC2)c1OC [Compound M100907, reference compound]
effect of antagonist pretreatment on HTR induced by I-1 [6]: completely blocked
